Test results taken from patent publication US8884097B1, “Method to condition an invertebrate to detect a concentration range of a chemical compound” (The United States of America as represented by the …, priority 2011, dated 2014).
Entries after “also recorded” stand apart in the source; their conditions may differ.

Columns and labels:
Microplitis croceipes [1] = test: Conditioned food-searching response of wasps to individual odor concentrations; type: in vivo; details: positively conditioned to 100 μg/ml and 1000 μg/ml, tested at 1000 μg/ml
Microplitis croceipes [2] = test: as above; type: in vivo
Protocol: Female wasps were conditioned to a 30 μl solution of indole (Spectrum Chemical MFG CORP., Gardena, Calif.) dissolved in dichloromethane at either 100 μg/ml or 1 μg/ml. The solvent was allowed to evaporate for one min before the assay. The conditioning arena consisted of a 9 cm d, 1.5 cm h metal ring covered with aluminum foil that was placed inside a glass petri dish (10 cm d and 1 cm h) containing the compound-laden filter paper (2.5 cm d). A small (4 mm^2) piece of filter paper laden with the sugar water (1 molar sucrose solution) was placed at the center of the metal ring covered with aluminum foil. A total of 9 holes (ca 1 mm d) were punctured around the tissue paper so that diffusing volatiles could be perceived as they fed on the sugar water. Wasps were allowed to feed for 10 s three times with 30 s between feedings. All conditioning and testing was done under a chemical fume hood. The conditioning arena was replaced with fresh materials after every 5 females (ca 10-15 min). Females were placed in a Plexiglas cage with water for 2 hrs before testing. A total of 20 females were conditioned per day over 2 days.
All test solutions were allowed to evaporate for 1 minute before being presented to the wasps. The test arena was the same as the conditioning arena except that only a single (ca 1 mm d) hole was punctured at the center of the aluminum foil covered metal ring. Wasps were placed close to the hole using a transfer vial. Measured were food-specific behaviors (Wäckers et al., 2002) which included intense substrate antennation with frequent tight turning, a distinct lowering of the head for food searching and attempts to enter the hole. Responses parameters included a recordation of both the number of turns and overall duration of the food searching. Each female was presented a single odor concentration. A total of 20 females (10 to high and 10 to low concentrations) were tested per day over 2 days. Kruskal-Wallis non-parametric ANOVA was used to test the effect of concentration on wasp responses (StatSoft, Inc. 2003).
The arena and procedure for testing were as described in Example 1. However, the wasps were conditioned via positive food conditioning of sugar-water to indole at 1 μg/ml. Additionally, the same wasp was also negatively food conditioned to 100 μg/ml of indole with water. Each female was test with a single indole concentration at either 100 μg/ml of indole or at 1 μg/ml. A total of 20 females (10 to high and 10 to low concentrations) were tested per day over 2 days.
The arena and procedure for testing were as described in Example 1. However, the wasps were conditioned via positive food conditioning of sugar-water to 30 μl of conditioning solution of skatole dissolved in dichloromethane at either 0.001 μg/ml, 0.01 μg/ml, 0.1 μg/ml, 1 μg/ml, 10 μg/ml, or 100 μg/ml. A 1 molar sucrose solution was used as the unconditioned stimulus (reward).

[3] = conditioned to 0.1 μg/ml, tested at 0.1 μg/ml
[4] = conditioned to 0.1 μg/ml, tested at 1 μg/ml
[5] = conditioned to 1 μg/ml, tested at 0.1 μg/ml
[6] = conditioned to 1 μg/ml, tested at 1 μg/ml
[7] = conditioned to 1 μg/ml, tested at 10 μg/ml
[8] = conditioned to 10 μg/ml, tested at 1 μg/ml
[9] = conditioned to 10 μg/ml, tested at 10 μg/ml
[10] = conditioned to 100 μg/ml, tested at 100 μg/ml

Cc1c[nH]c2ccccc12 [skatole, 3-methyl-indole]
response of conditioned wasps (food searching time and turns) (Microplitis croceipes [1]): responded to both of the conditioning concentrations | response of conditioned wasps (food searching time and turns) (Microplitis croceipes [2]; [3]): no responses | response of conditioned wasps (food searching time and turns) (Microplitis croceipes [2]; [4]): no responses | response of conditioned wasps (food searching time and turns) (Microplitis croceipes [2]; [5]): responded to both concentrations; also recorded: able to detect it | response of conditioned wasps (food searching time and turns) (Microplitis croceipes [2]; [6]): responded to both concentrations | response of conditioned wasps (food searching time and turns) (Microplitis croceipes [2]; [7]): only responded to the conditioning concentration | response of conditioned wasps (food searching time and turns) (Microplitis croceipes [2]; [8]): responded to both skatole concentrations | response of conditioned wasps (food searching time and turns) (Microplitis croceipes [2]; [9]): responded to both skatole concentrations | response of conditioned wasps (food searching time and turns) (Microplitis croceipes [2]; conditioned to 10 μg/ml, tested at 100 μg/ml): only responded to the conditioning concentration | response of conditioned wasps (food searching time and turns) (Microplitis croceipes [2]; conditioned to 100 μg/ml, tested at 10 μg/ml): responded to both skatole concentrations | response of conditioned wasps (food searching time and turns) (Microplitis croceipes [2]; [10]): responded to both skatole concentrations | response of conditioned wasps (food searching time and turns) (Microplitis croceipes [2]; conditioned to 100 μg/ml, tested at 1 mg/ml): only responded to the conditioning concentration | response of conditioned wasps (food searching time and turns) (Microplitis croceipes [2]; positively conditioned to 100 μg/ml and 1000 μg/ml, tested at 10 μg/ml): responded | response of conditioned wasps (food searching time and turns) (Microplitis croceipes [2]; positively conditioned to 100 μg/ml and 1000 μg/ml, tested at 100 μg/ml): responded to both of the conditioning concentrations | conditioned response to the individual volatile (Microplitis croceipes [2]; single odor experiment): respond reliably

c1ccc2[nH]ccc2c1 [indole]
response of conditioned wasps (food searching time and turns) (Microplitis croceipes [2]; [6]): responded to the conditioned concentration | response of conditioned wasps (food searching time and turns) (Microplitis croceipes [2]; conditioned to 1 μg/ml, tested at 100 μg/ml): responded | response of conditioned wasps (food searching time and turns) (Microplitis croceipes [2]; conditioned to 100 μg/ml, tested at 1 μg/ml): did not respond | response of conditioned wasps (food searching time and turns) (Microplitis croceipes [2]; [10]): responded to the conditioned concentration | response of conditioned wasps (food searching time and turns) (Microplitis croceipes [2]; positively conditioned to 1 μg/ml and negatively conditioned to 100 μg/ml, tested at 1 μg/ml): responded to the conditioned concentration | response of conditioned wasps (food searching time and turns) (Microplitis croceipes [2]; positively conditioned to 1 μg/ml and negatively conditioned to 100 μg/ml, tested at 100 μg/ml): did not respond to the negatively conditioned concentration | conditioned response to the individual volatile (Microplitis croceipes [2]; single odor experiment): respond reliably | duration of the conditioned response compared with skatole (Microplitis croceipes [2]; single odor experiment): more prolonged response

C=CC(C)=CCC=C(C)C [ocimene, reference compound]
response of conditioned wasps to a non-conditioned odor (Microplitis croceipes [2]; single odor experiment, non-conditioned floral odor): do not respond

C[C@]12CCC(=O)C[C@@H]1CC[C@@H]1[C@@H]2CC[C@]2(C)C=CC[C@@H]12 [androstenone, 5α-androst-16-en-3-one]
response of conditioned wasps (food searching time and turns) (Microplitis croceipes [2]; conditioned to 0.01 μg/ml, tested at 0.01 μg/ml): responded to the conditioning concentration | response of conditioned wasps (food searching time and turns) (Microplitis croceipes [2]; conditioned to 0.1 μg/ml, tested at 0.01 μg/ml): only responded to the conditioning concentration | response of conditioned wasps (food searching time and turns) (Microplitis croceipes [2]; [3]): only responded to the conditioning concentration | response of conditioned wasps (food searching time and turns) (Microplitis croceipes [2]; [4]): only responded to the conditioning concentration | response of conditioned wasps (food searching time and turns) (Microplitis croceipes [2]; [5]): only responded to the conditioning concentration | response of conditioned wasps (food searching time and turns) (Microplitis croceipes [2]; [6]): only responded to the conditioning concentration | response of conditioned wasps (food searching time and turns) (Microplitis croceipes [2]; [7]): only responded to the conditioning concentration | response of conditioned wasps (food searching time and turns) (Microplitis croceipes [2]; [8]): did not respond to either concentration | response of conditioned wasps (food searching time and turns) (Microplitis croceipes [2]; [9]): did not respond to either concentration | conditioned response to the individual volatile (Microplitis croceipes [2]; single odor experiment): weak
